The conditions of series [1]: cited from earlier work.
Series [2] is described as follows: storage stability (potency / % remaining after storage). Type of series: physicochemical.

For the compound `COc1cc([C@@H]2c3cc4c(cc3[C@@H](O[C@@H]3O[C@@H]5CO[C@@H](C)O[C@H]5[C@H](O)[C@H]3O)[C@H]3COC(=O)[C@H]23)OCO4)cc(OC)c1O` [etoposide, Etoposide], the solubility in water entry in series [1] is listed as “about 0.1 mg/ml”.

Turning to `COc1cc(C2c3cc4c(cc3C(OC3OC5COC(C)OC5C(O)C3O)C3COC(=O)C23)OCO4)cc(OC)c1OP(=O)([O-])[O-].O.O.O.O.O.O.[Na+].[Na+]` (centres unmarked) [hexahydrate, Etoposide 4'-Phosphate Disodium salt hexahydrate], the “% Remaining” value in series [2] (9 weeks at 50°C, in sealed glass vials) came to 99.4%; in series [2] (28 days at 80% Relative Humidity, 37°C), 100.0%. Besides, the potency remaining in series [2] (28 days at 37°C) came to 100%. The same compound registered a potency in series [2] (storage for 63 days at 30°C) greater than 99%.
